# Data as given in patent US4994485A, “Thio compounds having fungicidal activity” (Duphar International Research B.V., priority 1986, dated 1991).
# System: Fusarium culmorum
# Assay: Protection of seedlings against plant pathogenic seed fungus by seed treatment (wheat)
# Assay type: in vivo
# Conditions: wheat seed infested with Fusarium culmorum; 3 g composition (10% by weight in kaolin) per kg of seed; after three weeks, 8°-12° C.; untreated 67
# Protocol: Test with respect to the protection of seedlings against a plant pathogenic seed fungus, namely Fusarium culmorum, by means of a seed treatment.
# Wheat seed, infested with Fusarium culmorum, is treated with the substance to be tested in the form of a composi tion in a quantity of 3 g per kg of seed. The composition is obtained by pulverising the substance to be tested and then intimately mixing with kaolin in a concentration of 10% by weight. The seed thus treated is sown in a tray containing soil which is placed in a Wisconsin tank with a bottom temperature of 8°-12° C. After three weeks the number of emerged and healthy plants is determined. The emergence of healthy plants from untreated seed serves as control. For comparison, the known substances 2-methylsulphinyl-4-methyl-5-nitrothiazole (a), 2-methylsulphinyl-3-nitrothiophene (b) and 2-ethylsulphinyl-3-nitro-5-acetylthiophene (c) mentioned hereinbefore are also tested. In the examples, the numbers of the compounds refer to the specification.
row,Structure (SMILES),"Percentage of emerged, healthy plants [%]"
1,"CC(=O)c1sc([S+](C)[O-])c(C#N)c1Cl (centres unmarked) [(2), 2-methylsulphinyl-3-cyano-4-chloro-5-acetylthiophene]",87
2,"C[S+]([O-])c1sc(C#N)c(Cl)c1C#N (centres unmarked) [(3), 2-methylsulphinyl-3,5-dicyano-4-chlorothiophene]",91
3,"C[S+]([O-])c1sc(C#N)cc1C#N (centres unmarked) [(4), 2-methylsulphinyl-3,5-dicyanothiophene]",90
4,"CC[S+]([O-])c1sc(C#N)c(Cl)c1C#N (centres unmarked) [(7), 2-ethylsulphinyl-3,5-dicyano-4-chlorothiophene]",98
5,"CC[S+]([O-])c1sc(C#N)cc1C#N (centres unmarked) [(8), 2-ethylsulphinyl-3,5-dicyanothiophene]",92
6,"CC[S+]([O-])c1sc(C(C)=O)c(N)c1C#N (centres unmarked) [(10), 2-ethylsulphinyl-3-cyano-4-amino-5-acetylthiophene]",98
7,"CC[S+]([O-])c1sc(C#N)c(OC)c1C#N (centres unmarked) [(13), 2-ethylsulphinyl-3,5-dicyano-4-methoxythiophene]",90
8,"CC[S+]([O-])c1sc2cc([N+](=O)[O-])ccc2c1C#N (centres unmarked) [(27), 2-ethylsulphinyl-3-cyano-6-nitro-benzothiophene]",96

# System: Pythium spp.
# Assay: Protection of seedlings against plant-pathogenic soil fungus by seed treatment (beet)
# Assay type: in vivo
# Conditions: 600 mg of active substance per kg of seed, after 3 weeks, 18°-22° C., untreated 72
# Protocol: Test with respect to the protection of seedlings against a plant-pathogenicsoil fungus, namely Pythium spp., by means of a seed treatment.
# The compounds to be tested are processed to compositions by pulverising them and then mixing them intimately with kaolin in the desired concentration (see Table B). Beet seed is treated with these compositions in a quantity of 6 g of composition per kg of seed and then sown in trays with soil which was seriously infested with Pythium spp. After 3 weeks in a glass-house at 18°-22° C. and a relative humidity of 70-100%, the percentage of non-emerged and diseased seedlings (damping-off) is determined. The results are recorded in Table B. For comparison, the known substance 2-methylsulphinyl-4-methyl-5-nitrothiazole(a) is also tested.
row,Structure (SMILES),percentage damping-off [%]
1,"CC(=O)c1sc([S+](C)[O-])c(C#N)c1Cl (centres unmarked) [(2), 2-methylsulphinyl-3-cyano-4-chloro-5-acetylthiophene]",7
2,"C[S+]([O-])c1sc(C#N)c(Cl)c1C#N (centres unmarked) [(3), 2-methylsulphinyl-3,5-dicyano-4-chlorothiophene]",6
3,"C[S+]([O-])c1sc(C#N)cc1C#N (centres unmarked) [(4), 2-methylsulphinyl-3,5-dicyanothiophene]",10
4,"CC[S+]([O-])c1sc(C#N)c(Cl)c1C#N (centres unmarked) [(7), 2-ethylsulphinyl-3,5-dicyano-4-chlorothiophene]",17
5,"CC[S+]([O-])c1sc(C#N)cc1C#N (centres unmarked) [(8), 2-ethylsulphinyl-3,5-dicyanothiophene]",16
6,"CC[S+]([O-])c1sc(C(C)=O)c(N)c1C#N (centres unmarked) [(10), 2-ethylsulphinyl-3-cyano-4-amino-5-acetylthiophene]",10
7,"CC[S+]([O-])c1sc(C#N)c(OC)c1C#N (centres unmarked) [(13), 2-ethylsulphinyl-3,5-dicyano-4-methoxythiophene]",3
8,"CC[S+]([O-])c1sc2cc([N+](=O)[O-])ccc2c1C#N (centres unmarked) [(27), 2-ethylsulphinyl-3-cyano-6-nitro-benzothiophene]",4

# Same assay, conditions: 1200 mg of active substance per kg of seed, after 3 weeks, 18°-22° C., untreated 72
row,Structure (SMILES),percentage damping-off [%]
1,"CC(=O)c1sc([S+](C)[O-])c(C#N)c1Cl (centres unmarked) [(2), 2-methylsulphinyl-3-cyano-4-chloro-5-acetylthiophene]",6
2,"C[S+]([O-])c1sc(C#N)c(Cl)c1C#N (centres unmarked) [(3), 2-methylsulphinyl-3,5-dicyano-4-chlorothiophene]",5
3,"C[S+]([O-])c1sc(C#N)cc1C#N (centres unmarked) [(4), 2-methylsulphinyl-3,5-dicyanothiophene]",9
4,"CC[S+]([O-])c1sc(C#N)c(Cl)c1C#N (centres unmarked) [(7), 2-ethylsulphinyl-3,5-dicyano-4-chlorothiophene]",17
5,"CC[S+]([O-])c1sc(C#N)cc1C#N (centres unmarked) [(8), 2-ethylsulphinyl-3,5-dicyanothiophene]",12
6,"CC[S+]([O-])c1sc(C(C)=O)c(N)c1C#N (centres unmarked) [(10), 2-ethylsulphinyl-3-cyano-4-amino-5-acetylthiophene]",9
7,"CC[S+]([O-])c1sc(C#N)c(OC)c1C#N (centres unmarked) [(13), 2-ethylsulphinyl-3,5-dicyano-4-methoxythiophene]",1
8,"CC[S+]([O-])c1sc2cc([N+](=O)[O-])ccc2c1C#N (centres unmarked) [(27), 2-ethylsulphinyl-3-cyano-6-nitro-benzothiophene]",2

# System: not listed separately
# Assay: Acute oral toxicity (lethal dose) in male mice
# Conditions: mouse, in vivo, acute mortality, mg/kg of body weight
# Protocol: Toxicity with respect to warm-blooded living beings.
# The LD50 is determined by orally administering the substance to be tested to male mice and determining the acute mortality. In Table C below, the LD50 is recorded in mg/kg of body weight.
# For comparison, the known compound (b) (see EXAMPLE XV) is also tested.
row,Structure (SMILES),LD50 [mg/kg]
1,"CC[S+]([O-])c1sc(C#N)c(Cl)c1C#N (centres unmarked) [(7), 2-ethylsulphinyl-3,5-dicyano-4-chlorothiophene]",400
2,"CC[S+]([O-])c1sc(C#N)cc1C#N (centres unmarked) [(8), 2-ethylsulphinyl-3,5-dicyanothiophene]",119
3,"CC[S+]([O-])c1sc(C(C)=O)c(N)c1C#N (centres unmarked) [(10), 2-ethylsulphinyl-3-cyano-4-amino-5-acetylthiophene]",141
4,"CC[S+]([O-])c1sc(C#N)c(OC)c1C#N (centres unmarked) [(13), 2-ethylsulphinyl-3,5-dicyano-4-methoxythiophene]",130

# System: Pyrenophora graminea
# Assay: In vitro test on activity against Pyrenophora graminea
# Assay type: cell-based
# Conditions: 3 ppm, 48 hours, 20° C., read-out: % growth inhibition of the fungus
# Protocol: In vitro test on activity against Pyrenophora graminea.
# The compound to be tested is processed in a culture medium consisting of 1% by weight of glucose, 0.2% by weight of a yeast extract (marmite), 0.5% by weight of a protein (pepton), 2.5% by weight of agar-agar, and 95.8% by weight of water, in petri dishes in concentrations of 3 and 10 ppm. The petri dishes are inoculated with the plant-pathogenic fungus Pyrenophora graminea and then kept at a temperature of 20° C. After 48 hours the growth-inhibiting activity of the compounds is determined visually. For comparison, the known substance (b) (see EXAMPLE XV) is also tested.
row,Structure (SMILES),inhibition at 3 ppm [%]
1,"CC(=O)c1sc([S+](C)[O-])c(C#N)c1Cl (centres unmarked) [(2), 2-methylsulphinyl-3-cyano-4-chloro-5-acetylthiophene]",64
2,"C[S+]([O-])c1sc(C#N)c(Cl)c1C#N (centres unmarked) [(3), 2-methylsulphinyl-3,5-dicyano-4-chlorothiophene]",57
3,"C[S+]([O-])c1sc(C#N)cc1C#N (centres unmarked) [(4), 2-methylsulphinyl-3,5-dicyanothiophene]",66
4,"CC[S+]([O-])c1sc(C#N)c(Cl)c1C#N (centres unmarked) [(7), 2-ethylsulphinyl-3,5-dicyano-4-chlorothiophene]",59
5,"CC[S+]([O-])c1sc(C#N)cc1C#N (centres unmarked) [(8), 2-ethylsulphinyl-3,5-dicyanothiophene]",49

# Same assay, conditions: 10 ppm, 48 hours, 20° C., read-out: % growth inhibition of the fungus
row,Structure (SMILES),inhibition at 10 ppm [%]
1,"CC(=O)c1sc([S+](C)[O-])c(C#N)c1Cl (centres unmarked) [(2), 2-methylsulphinyl-3-cyano-4-chloro-5-acetylthiophene]",79
2,"C[S+]([O-])c1sc(C#N)c(Cl)c1C#N (centres unmarked) [(3), 2-methylsulphinyl-3,5-dicyano-4-chlorothiophene]",80
3,"C[S+]([O-])c1sc(C#N)cc1C#N (centres unmarked) [(4), 2-methylsulphinyl-3,5-dicyanothiophene]",84
4,"CC[S+]([O-])c1sc(C#N)c(Cl)c1C#N (centres unmarked) [(7), 2-ethylsulphinyl-3,5-dicyano-4-chlorothiophene]",83
5,"CC[S+]([O-])c1sc(C#N)cc1C#N (centres unmarked) [(8), 2-ethylsulphinyl-3,5-dicyanothiophene]",72

# System: Fusarium culmorum
# Assay: In vitro test on activity against Fusarium culmorum
# Assay type: cell-based
# Conditions: read-out: growth inhibition of the fungus
row,Structure (SMILES),inhibition at 30 ppm [%]
1,"CC(=O)c1sc([S+](C)[O-])c(C#N)c1Cl (centres unmarked) [(2), 2-methylsulphinyl-3-cyano-4-chloro-5-acetylthiophene]",≥ 75
2,"C[S+]([O-])c1sc(C#N)c(Cl)c1C#N (centres unmarked) [(3), 2-methylsulphinyl-3,5-dicyano-4-chlorothiophene]",≥ 75
3,"CC[S+]([O-])c1sc(C#N)c(Cl)c1C#N (centres unmarked) [(7), 2-ethylsulphinyl-3,5-dicyano-4-chlorothiophene]",≥ 75
4,"CC[S+]([O-])c1sc(C#N)c(OC)c1C#N (centres unmarked) [(13), 2-ethylsulphinyl-3,5-dicyano-4-methoxythiophene]",≥ 75
5,"CC[S+]([O-])c1sc2cc([N+](=O)[O-])ccc2c1C#N (centres unmarked) [(27), 2-ethylsulphinyl-3-cyano-6-nitro-benzothiophene]",≥ 75

# System: Leptosphaeria nodorum
# Assay: In vitro test on activity against Leptosphaeria nodorum
# Assay type: cell-based
# Conditions: Parastagonospora nodorum, read-out: growth inhibition of the fungus
# Procedure, shortened: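 Compounds were incorporated at 3 and 10 ppm into glucose/yeast extract/peptone agar plates inoculated with the fungus. Plates were held at 20 °C, and growth inhibition was scored visually after 48 h.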
row,Structure (SMILES),inhibition at 30 ppm [%]
1,"CC(=O)c1sc([S+](C)[O-])c(C#N)c1Cl (centres unmarked) [(2), 2-methylsulphinyl-3-cyano-4-chloro-5-acetylthiophene]",≥ 85
2,"C[S+]([O-])c1sc(C#N)c(Cl)c1C#N (centres unmarked) [(3), 2-methylsulphinyl-3,5-dicyano-4-chlorothiophene]",≥ 85
3,"C[S+]([O-])c1sc(C#N)cc1C#N (centres unmarked) [(4), 2-methylsulphinyl-3,5-dicyanothiophene]",≥ 85
4,"CC[S+]([O-])c1sc(C#N)c(Cl)c1C#N (centres unmarked) [(7), 2-ethylsulphinyl-3,5-dicyano-4-chlorothiophene]",≥ 85
5,"CC[S+]([O-])c1sc(C(C)=O)c(N)c1C#N (centres unmarked) [(10), 2-ethylsulphinyl-3-cyano-4-amino-5-acetylthiophene]",≥ 85
6,"CC[S+]([O-])c1sc(C#N)c(OC)c1C#N (centres unmarked) [(13), 2-ethylsulphinyl-3,5-dicyano-4-methoxythiophene]",≥ 85
7,"CC[S+]([O-])c1sc2cc([N+](=O)[O-])ccc2c1C#N (centres unmarked) [(27), 2-ethylsulphinyl-3-cyano-6-nitro-benzothiophene]",≥ 85

# System: Pythium splendens
# Assay: In vitro test on activity against Pythium splendens
# Assay type: cell-based
# Conditions: Globisporangium splendens, read-out: growth inhibition of the fungus
row,Structure (SMILES),inhibition at 10 ppm [%]
1,"CC(=O)c1sc([S+](C)[O-])c(C#N)c1Cl (centres unmarked) [(2), 2-methylsulphinyl-3-cyano-4-chloro-5-acetylthiophene]",≥ 95
2,"C[S+]([O-])c1sc(C#N)c(Cl)c1C#N (centres unmarked) [(3), 2-methylsulphinyl-3,5-dicyano-4-chlorothiophene]",≥ 95
3,"C[S+]([O-])c1sc(C#N)cc1C#N (centres unmarked) [(4), 2-methylsulphinyl-3,5-dicyanothiophene]",≥ 95
4,"CC[S+]([O-])c1sc(C#N)c(Cl)c1C#N (centres unmarked) [(7), 2-ethylsulphinyl-3,5-dicyano-4-chlorothiophene]",≥ 95
5,"CC[S+]([O-])c1sc(C#N)cc1C#N (centres unmarked) [(8), 2-ethylsulphinyl-3,5-dicyanothiophene]",≥ 95
6,"CC[S+]([O-])c1sc(C(C)=O)c(N)c1C#N (centres unmarked) [(10), 2-ethylsulphinyl-3-cyano-4-amino-5-acetylthiophene]",≥ 95
7,"CC[S+]([O-])c1sc(C#N)c(OC)c1C#N (centres unmarked) [(13), 2-ethylsulphinyl-3,5-dicyano-4-methoxythiophene]",≥ 95
8,"CC[S+]([O-])c1sc2cc([N+](=O)[O-])ccc2c1C#N (centres unmarked) [(27), 2-ethylsulphinyl-3-cyano-6-nitro-benzothiophene]",≥ 95

# System: Rhizoctonia solani
# Assay: In vitro test on activity against Rhizoctonia solani
# Assay type: cell-based
# Conditions: read-out: growth inhibition of the fungus
# Protocol: The compound to be tested is processed in a culture medium consisting of 1% by weight of glucose, 0.2% by weight of a yeast extract (marmite), 0.5% by weight of a protein (pepton), 2.5% by weight of agar-agar, and 95.8% by weight of water, […] The petri dishes are inoculated with the plant-pathogenic fungus Pyrenophora graminea and then kept at a temperature of 20° C. After 48 hours the growth-inhibiting activity of the compounds is determined visually. For comparison, the known substance (b) (see EXAMPLE XV) is also tested.
# Compounds according to the invention are tested on Rhizoctonia solani in the same manner as described in EXAMPLE XIX.
row,Structure (SMILES),inhibition at 30 ppm [%]
1,"CC(=O)c1sc([S+](C)[O-])c(C#N)c1Cl (centres unmarked) [(2), 2-methylsulphinyl-3-cyano-4-chloro-5-acetylthiophene]",≥ 75
2,"C[S+]([O-])c1sc(C#N)c(Cl)c1C#N (centres unmarked) [(3), 2-methylsulphinyl-3,5-dicyano-4-chlorothiophene]",≥ 75
3,"C[S+]([O-])c1sc(C#N)cc1C#N (centres unmarked) [(4), 2-methylsulphinyl-3,5-dicyanothiophene]",≥ 75
4,"CC[S+]([O-])c1sc2cc([N+](=O)[O-])ccc2c1C#N (centres unmarked) [(27), 2-ethylsulphinyl-3-cyano-6-nitro-benzothiophene]",≥ 75
